≈ marks a conversion by molar mass, not a printed value.
Tests used:
Format in all cases: functional
[1] = tested on: Streptococcus pneumoniae; assay: The compound was tested in vitro for antibacterial activity against inducibly erythromycin resistant Streptococcus pneumoniae 030J5i.
[2] = tested on: Streptococcus pneumoniae; assay: The compound was tested in vitro for antibacterial activity against constitutively erythromycin resistant Streptococcus pneumoniae 030PW23c.
[3] = tested on: Staphylococcus aureus; assay: The compound was tested in vitro for antibacterial activity against constitutively erythromycin resistant Staphylococcus aureus 011CB20.
[4] = tested on: Staphylococcus aureus; assay: The compound was tested in vitro for antibacterial activity against erythromycin susceptible Staphylococcus aureus 011UC4.
[5] = tested on: Streptococcus pyogenes; assay: The compound was tested in vitro for antibacterial activity against erythromycin susceptible Streptococcus pyogenes 02A1UC1.
[6] = tested on: Escherichia coli; assay: The compound was tested in vitro for antibacterial activity against Escherichia coli 250 UCS.
[7] = tested on: Haemophilus influenzae; assay: The compound was tested in vitro for antibacterial activity against Haemophilus influenza 351HT3.
[8] = tested on: Staphylococcus aureus; assay: The compound was tested in vitro for antibacterial activity against inducibly erythromycin resistant Staphylococcus aureus 011GO25i.
[9] = tested on: Streptococcus pneumoniae; assay: The compound was tested in vitro for antibacterial activity against constitutively erythromycin resistant Streptococcus pneumoniae 030SJ1.
[10] = tested on: Streptococcus pneumoniae; assay: The compound was tested in vitro for antibacterial activity against erythromycin susceptible Streptococcus pneumoniae 032UC1.
[11] = tested on: Streptococcus pneumoniae; assay: The compound was tested in vitro for antibacterial activity against constitutively erythromycin resistant Streptococcus pneumoniae 030CR18c.
[12] = tested on: Staphylococcus aureus; assay: The compound was tested in vitro for antibacterial activity against inducibly erythromycin resistant Staphylococcus aureus 011GO25i
[13] = tested on: Escherichia coli; assay: The compound was tested in vitro for antibacterial activity against Escherichia coli 250 UCS
[14] = tested on: Staphylococcus aureus; assay: The compound was tested in vitro for antibacterial activity against erythromycin susceptible Staphylococcus aureus 011UC4
[15] = tested on: Streptococcus pneumoniae; assay: The compound was tested in vitro for antibacterial activity against inducibly erythromycin resistant Streptococcus pneumoniae 030J5i
[16] = tested on: Streptococcus pneumoniae; assay: The compound was tested in vitro for antibacterial activity against constitutively erythromycin resistant Streptococcus pneumoniae 030PW23c
[17] = tested on: Haemophilus influenzae; assay: The compound was tested in vitro for antibacterial activity against Haemophilus influenza 351HT3
[18] = tested on: Staphylococcus aureus; assay: The compound was tested in vitro for antibacterial activity against constitutively erythromycin resistant Staphylococcus aureus 011CB20
[19] = tested on: Streptococcus pneumoniae; assay: The compound was tested in vitro for antibacterial activity against constitutively erythromycin resistant Streptococcus pneumoniae 030SJ1
[20] = tested on: Streptococcus pyogenes; assay: The compound was tested in vitro for antibacterial activity against erythromycin susceptible Streptococcus pyogenes 02A1UC1
[21] = tested on: Streptococcus pneumoniae; assay: The compound was tested in vitro for antibacterial activity against constitutively erythromycin resistant Streptococcus pneumoniae 030CR18c
[22] = tested on: Streptococcus pneumoniae; assay: The compound was tested in vitro for antibacterial activity against erythromycin susceptible Streptococcus pneumoniae 032UC1

| Compound | MIC [1] [µg/mL] | MIC [2] [µg/mL] | MIC [3] [µg/mL] | MIC [4] [µg/mL] | MIC [5] [µg/mL] | MIC [6] [µg/mL] | MIC [7] [µg/mL] | MIC [8] [µg/mL] | MIC [9] [µg/mL] | MIC [10] [µg/mL] | MIC [11] [µg/mL] | MIC [12] [µg/mL] | MIC [13] [µg/mL] | MIC [14] [µg/mL] | MIC [15] [µg/mL] | MIC [16] [µg/mL] | MIC [17] [µg/mL] | MIC [19] [µg/mL] | MIC [20] [µg/mL] | MIC [21] [µg/mL] | further results |
| --- | --- | --- | --- | --- | --- | --- | --- | --- | --- | --- | --- | --- | --- | --- | --- | --- | --- | --- | --- | --- | --- |
| CC[C@H]1OC(=O)[C@H](C)C(=O)[C@H](C)[C@@H](O[C@@H]2O[C@H](C)C[C@H](N(C)C)[C@H]2O)[C@](C)(OC)C[C@@H](C)C(=O)[C@H](C)[C@H]2N(CCCCn3nnnc3-c3ccccc3)C(=O)O[C@]12C | 0.02 (≈ 0.0246 µM) | 0.6 (≈ 0.738 µM) | 40 (≈ 49.2 µM) | 0.02 (≈ 0.0246 µM) | 0.02 (≈ 0.0246 µM) | 20 (≈ 24.6 µM) | 1.2 (≈ 1.48 µM) | 0.6 (≈ 0.738 µM) | 0.3 (≈ 0.369 µM) | 0.02 (≈ 0.0246 µM) | 1.2 (≈ 1.48 µM) |  |  |  |  |  |  |  |  |  |  |
| CC[C@H]1OC(=O)[C@H](C)C(=O)[C@H](C)[C@@H](O[C@@H]2O[C@H](C)C[C@H](N(C)C)[C@H]2O)[C@](C)(OC)C[C@@H](C)C(=O)[C@H](C)[C@H]2N(CCCCc3ccnc4ccccc34)C(=O)O[C@]12C |  |  |  |  |  |  |  |  |  |  |  | 0.08 (≈ 0.101 µM) | 40 (≈ 50.3 µM) | 0.04 (≈ 0.0503 µM) | 0.02 (≈ 0.0251 µM) | 1.2 (≈ 1.51 µM) | 1.2 (≈ 1.51 µM) | 1.2 (≈ 1.51 µM) | 0.02 (≈ 0.0251 µM) | 1.2 (≈ 1.51 µM) | MIC [18]: 40 µg/mL (≈ 50.3 µM); MIC [22]: 0.02 µg/mL (≈ 0.0251 µM) |
| CC[C@H]1OC(=O)[C@H](C)C(=O)[C@H](C)[C@@H](O[C@@H]2O[C@H](C)C[C@H](N(C)C)[C@H]2O)[C@](C)(OC)C[C@@H](C)C(=O)[C@H](C)[C@H]2N(CCCCn3cnc(-c4ccccc4)n3)C(=O)O[C@]12C | 0.3 (≈ 0.369 µM) | 1.2 (≈ 1.48 µM) | 40 (≈ 49.3 µM) | 0.02 (≈ 0.0246 µM) | 0.02 (≈ 0.0246 µM) | 40 (≈ 49.3 µM) | 1.2 (≈ 1.48 µM) | 0.15 (≈ 0.185 µM) | 0.6 (≈ 0.739 µM) | 0.04 (≈ 0.0493 µM) | 1.2 (≈ 1.48 µM) |  |  |  |  |  |  |  |  |  |  |
| CC[C@H]1OC(=O)[C@H](C)C(=O)[C@H](C)[C@@H](O[C@@H]2O[C@H](C)C[C@H](N(C)C)[C@H]2OC(C)=O)[C@](C)(OC)C[C@@H](C)C(=O)/C(C)=C/[C@]1(C)OC(=O)n1ccnc1 |  |  | 40 (≈ 56.7 µM) |  |  |  |  |  |  |  |  | 0.15 (≈ 0.213 µM) | 20 (≈ 28.3 µM) | 0.08 (≈ 0.113 µM) | 0.08 (≈ 0.113 µM) | 10 (≈ 14.2 µM) | 2.5 (≈ 3.54 µM) | 10 (≈ 14.2 µM) | 0.02 (≈ 0.0283 µM) | 10 (≈ 14.2 µM) | MIC [22]: 0.02 µg/mL (≈ 0.0283 µM) |
| CC[C@H]1OC(=O)[C@H](C)C(=O)[C@H](C)[C@@H](O[C@@H]2O[C@H](C)C[C@H](N(C)C)[C@H]2O)[C@](C)(OC)C[C@@H](C)C(=O)[C@H](C)[C@H]2N(CCCCn3ccc4ccccc43)C(=O)O[C@]12C | 0.08 (≈ 0.102 µM) | 2.5 (≈ 3.19 µM) | 40 (≈ 51 µM) | 0.04 (≈ 0.051 µM) | 0.02 (≈ 0.0255 µM) | 10 (≈ 12.8 µM) | 0.6 (≈ 0.765 µM) | 0.08 (≈ 0.102 µM) | 2.5 (≈ 3.19 µM) | 0.02 (≈ 0.0255 µM) | 2.5 (≈ 3.19 µM) |  |  |  |  |  |  |  |  |  |  |

— ChEMBL document CHEMBL1131863, “Synthesis and antibacterial activity of HMR 3647 a new ketolide highly potent against erythromycin-resistant and susceptible pathogens” (1999)
